Patent publication US20240252596A1, “Injectable Polymeric Biopharmaceutical Formulations” (The Board of Trustees of the Leland Stanford Junior …, priority 2023, published 2024)

Assays:
[1] = Syringe force measurements of liquid carriers alone after 48 h; assay type: physicochemical; details: media alone in syringe, after 48 h at ambient temperature
Experimental: To investigate the syringe force profile for various liquid carriers in syringes (e.g., break loose (initiating) force, and the glide (sustaining) force), the following media alone were loaded into syringes in duplicate (n=2): • 1. triacetin (100%) • 2. benzyl benzoate (100%) • 3. Miglyol 810 (100%) • 4. Miglyol 840 (100%) • 5. benzyl alcohol (100%) • 6. ethyl oleate (100%).
The above syringes were stored for 48 h at ambient temperature, protected from light.
Syringe force measurements (n=2) were conducted on each media after 48 h.

[2] = as above; assay type: physicochemical; details: vehicle
[3] = Parameters of liquid carriers (density, viscosity, vapor pressure); details: liquid carrier
Experimental: (§1) To investigate the liquid carrier component of the subject compositions, a number of solvents were tested for their suspension performance characteristics.

[4] = Liquid carrier studies: suspension performance of BSA/MoNi (5%) microparticles at 460 mg/mL; details: for Suspension Performance: BSA/MoNi (5%) microparticles dispersed at 460 mg/mL in the media; for Additional comments (consistency on dispersion, stability of suspension): BSA/MoNi (5%) microparticles dispersed in the media; for time until suspension hardens: sealed in a glass container with parafilm
Experimental: as §1

SKH1-E mice = assay: Tolerability screen: subcutaneous injection of solvent or solvent blend, adverse skin reaction; assay type: in vivo; details: 10 uL s.c.
Experimental: SKH1-E mice were subcutaneously administered 10 μL of solvent or solvent blend with triacetin (no protein). […] Volume of solvent injected was 2× the solvent volume that would be administered to a mouse in a paste.
Degree of adverse skin reaction was quantified using the grading scale of Table 5: […]

Row | SMILES | Break loose (N), n = 2 [1] | Glide force (N), n = 2 [1] | Viscosity (cp)* [2] | Density [3] | Vapor pressure [3] | Viscosity (@25 C.) [3] | Suspension Performance [4] | Additional comments (consistency on dispersion, stability of suspension) [4] | time until suspension hardens [4] | skin reaction (SKH1-E mice)
1 | OCc1ccccc1 [Benzyl Alcohol (BA), Benzyl Alcohol] | 4.8 N | 2.5 N | 5 cp | 1.04 g/mL | 12 Pa | 5.4 | + | Forms very low viscosity |  | 
2 | O=C(OCc1ccccc1)c1ccccc1 [Benzyl benzoate] | 5.7 N | 3.5 N | 8-9 cp | 1.11 g/mL |  | 8.29 | + | Forms a low viscosity solution |  | 
3 | C[S+](C)[O-] [Dimethyl sulfoxide (DMSO), Dimethyl sulfoxide] |  |  |  | 1.09 g/mL | 80 Pa | 2.0 |  | quickly hardens into a flaky | paste (within 1 hour when sealed | 
4 | CCO [Ethyl alcohol] |  |  |  | 0.79 g/mL |  | 1.07 |  | Clumps immediately, cannot |  | 
5 | CN1CCCC1=O [N-methyl-2-pyrrolidone (NMP), N-methyl-2-pyrrolidone] |  |  |  | 1.03 g/mL | 45 Pa | 1.89 | +/− | Forms very low viscosity |  | 
6 | CC(O)CO (stereo not drawn) [Propylene glycol (PG), Propylene glycol] |  |  |  | 1.03 g/mL | 11 Pa | 48.6 |  | quickly hardens into a sticky | rock (within a couple hours | 
7 | CC(=O)OCC(COC(C)=O)OC(C)=O [Triacetin] | 8.1 N | 6.1 N | 23 cp | 1.16 g/mL | 0.267 Pa | 23 | ++ | A very good non-solvent. Shows |  | no skin swelling or redness
8 | CCCCCCCC/C=C\CCCCCCCC(=O)OCC [ethyl oleate] | 4.2 N | 3.2 N | 6 cp |  |  |  |  |  |  | 
